Measurements reported in ChEMBL document CHEMBL1149783, “New stereoselective titanium reductive amination synthesis of 3-amino and polyaminosterol derivatives possessing antimicrobial activities” (2008).
Values after ≈ are worked out from the molar mass of the structure shown.

What was measured:
Type in all cases: functional
Saccharomyces cerevisiae = assay: Antifungal activity against Saccharomyces cerevisiae CIP 28383 by broth microdilution method
Staphylococcus aureus = assay: Antibacterial activity against Staphylococcus aureus CIP 4.83 by broth microdilution method
Escherichia coli = assay: Antibacterial activity against Escherichia coli CIP 54127 by broth microdilution method
Candida albicans = assay: Antifungal activity against Candida albicans CIP 1180-79 by broth microdilution method
Enterococcus faecalis = assay: Antibacterial activity against Enterococcus faecalis CIP 103015 by broth microdilution method

Structure (SMILES) | MIC (Saccharomyces cerevisiae) | MIC (Staphylococcus aureus) | MIC (Escherichia coli) | MIC (Candida albicans) | MIC (Enterococcus faecalis)
CC(C)CCCC(C)C1CCC2C3CCC4CC(NCCCNCCCCNCCCN)CCC4(C)C3CCC12C (stereo not drawn) | 6.25 µg/mL (≈ 10.9 µM) | 3.12 µg/mL (≈ 5.45 µM) | > 50 µg/mL | 50 µg/mL (≈ 87.3 µM) | 12.5 µg/mL (≈ 21.8 µM)
CNC1CCC2(C)C(CCC3C2CCC2(C)C(C(C)CCCC(C)C)CCC32)C1 (stereo not drawn) | 12.5 µg/mL (≈ 31.1 µM) | 6.25 µg/mL (≈ 15.6 µM) | > 50 µg/mL | 12.5 µg/mL (≈ 31.1 µM) | 6.25 µg/mL (≈ 15.6 µM)
CC(C)CCCC(C)C1CCC2C3CCC4CC(N)CCC4(C)C3CCC12C (stereo not drawn) | > 50 µg/mL | > 50 µg/mL | > 50 µg/mL | 50 µg/mL (≈ 129 µM) | 50 µg/mL (≈ 129 µM)
CC(C)CCCC(C)C1CCC2C3CCC4CC(NCCCCCCCN)CCC4(C)C3CCC12C (stereo not drawn) | > 50 µg/mL | > 50 µg/mL | > 50 µg/mL | > 50 µg/mL | > 50 µg/mL
CC(C)CCC[C@@H](C)[C@H]1CC[C@H]2[C@@H]3CCC4=C[C@@H](NCCCCCCCCCN)CC[C@]4(C)[C@H]3CC[C@]12C | > 50 µg/mL | > 50 µg/mL | > 50 µg/mL | > 50 µg/mL | > 50 µg/mL
CC(C)CCC[C@@H](C)[C@H]1CC[C@H]2[C@@H]3CC=C4C[C@@H](NCCCNCCCCNCCCN)CC[C@]4(C)[C@H]3CC[C@]12C | > 50 µg/mL | 6.25 µg/mL (≈ 10.9 µM) | > 50 µg/mL | > 50 µg/mL | > 50 µg/mL
CC(C)CCC[C@@H](C)[C@H]1CC[C@H]2[C@@H]3CC[C@H]4C[C@@H](NCCCN)CC[C@]4(C)[C@H]3CC[C@]12C | > 50 µg/mL | > 50 µg/mL | > 50 µg/mL | > 50 µg/mL | > 50 µg/mL
CC(C)CCC[C@@H](C)[C@H]1CC[C@H]2[C@@H]3CC=C4C[C@@H](NCCN)CC[C@]4(C)[C@H]3CC[C@]12C | > 50 µg/mL | 12.5 µg/mL (≈ 29.2 µM) | 12.5 µg/mL (≈ 29.2 µM) | > 50 µg/mL | 25 µg/mL (≈ 58.3 µM)
CC(C)CCC[C@@H](C)[C@H]1CC[C@H]2[C@@H]3CC=C4C[C@@H](NCCCCN)CC[C@]4(C)[C@H]3CC[C@]12C | > 50 µg/mL | 1.56 µg/mL (≈ 3.42 µM) | 6.25 µg/mL (≈ 13.7 µM) | > 50 µg/mL | 6.25 µg/mL (≈ 13.7 µM)
CC(C)CCC[C@@H](C)[C@H]1CC[C@H]2[C@@H]3CC[C@H]4C[C@@H](NCCCCN)CC[C@]4(C)[C@H]3CC[C@]12C | 50 µg/mL (≈ 109 µM) | 12.5 µg/mL (≈ 27.2 µM) | > 50 µg/mL | 25 µg/mL (≈ 54.5 µM) | > 50 µg/mL
CC(C)CCC[C@@H](C)[C@H]1CC[C@H]2[C@@H]3CC[C@H]4C[C@@H](NCCN)CC[C@]4(C)[C@H]3CC[C@]12C | 50 µg/mL (≈ 116 µM) | 12.5 µg/mL (≈ 29 µM) | > 50 µg/mL | > 50 µg/mL | > 50 µg/mL
CC(C)CCC[C@@H](C)[C@H]1CC[C@H]2[C@@H]3CCC4=C[C@@H](NCCCCCCN)CC[C@]4(C)[C@H]3CC[C@]12C | > 50 µg/mL | > 50 µg/mL | > 50 µg/mL | > 50 µg/mL | > 50 µg/mL
CC(C)CCC[C@@H](C)[C@H]1CC[C@H]2[C@@H]3CCC4=C[C@@H](NCCCCCCCN)CC[C@]4(C)[C@H]3CC[C@]12C | > 50 µg/mL | > 50 µg/mL | > 50 µg/mL | > 50 µg/mL | > 50 µg/mL
CN[C@@H]1C=C2CC[C@H]3[C@@H]4CC[C@H]([C@H](C)CCCC(C)C)[C@@]4(C)CC[C@@H]3[C@@]2(C)CC1 | 12.5 µg/mL (≈ 31.3 µM) | 1.56 µg/mL (≈ 3.9 µM) | > 50 µg/mL | 12.5 µg/mL (≈ 31.3 µM) | 25 µg/mL (≈ 62.5 µM)
CC(C)CCC[C@@H](C)[C@H]1CC[C@H]2[C@@H]3CCC4=C[C@@H](NCCN)CC[C@]4(C)[C@H]3CC[C@]12C | > 50 µg/mL | 12.5 µg/mL (≈ 29.2 µM) | > 50 µg/mL | > 50 µg/mL | > 50 µg/mL
CC(C)CCC[C@@H](C)[C@H]1CC[C@H]2[C@@H]3CC[C@H]4C[C@@H](NCCCCCCN)CC[C@]4(C)[C@H]3CC[C@]12C | > 50 µg/mL | > 50 µg/mL | > 50 µg/mL | > 50 µg/mL | > 50 µg/mL
CC(C)CCC[C@@H](C)[C@H]1CC[C@H]2[C@@H]3CCC4=C[C@@H](NCCCCCN)CC[C@]4(C)[C@H]3CC[C@]12C | > 50 µg/mL | 6.25 µg/mL (≈ 13.3 µM) | > 50 µg/mL | > 50 µg/mL | 6.25 µg/mL (≈ 13.3 µM)
CC(C)CCC[C@@H](C)[C@H]1CC[C@H]2[C@@H]3CCC4=C[C@@H](NCCCN)CC[C@]4(C)[C@H]3CC[C@]12C | > 50 µg/mL | 12.5 µg/mL (≈ 28.2 µM) | > 50 µg/mL | 25 µg/mL (≈ 56.5 µM) | > 50 µg/mL
CC(C)CCC[C@@H](C)[C@H]1CC[C@H]2[C@@H]3CCC4=C[C@@H](NCCCCN)CC[C@]4(C)[C@H]3CC[C@]12C | 12.5 µg/mL (≈ 27.4 µM) | 6.25 µg/mL (≈ 13.7 µM) | 25 µg/mL (≈ 54.7 µM) | 6.25 µg/mL (≈ 13.7 µM) | 6.25 µg/mL (≈ 13.7 µM)
CC(C)CCC[C@@H](C)[C@H]1CC[C@H]2[C@@H]3CCC4=C[C@@H](NCCCCCCCCCCCCN)CC[C@]4(C)[C@H]3CC[C@]12C | > 50 µg/mL | > 50 µg/mL | > 50 µg/mL | > 50 µg/mL | > 50 µg/mL
CC(C)CCC[C@@H](C)[C@H]1CC[C@H]2[C@@H]3CCC4=C[C@@H](NCCCCCCCCCCN)CC[C@]4(C)[C@H]3CC[C@]12C | > 50 µg/mL | > 50 µg/mL | > 50 µg/mL | > 50 µg/mL | > 50 µg/mL
CC(C)CCC[C@@H](C)[C@H]1CC[C@H]2[C@@H]3CCC4=C[C@@H](NCCCNCCCCNCCCN)CC[C@]4(C)[C@H]3CC[C@]12C | > 50 µg/mL | 6.25 µg/mL (≈ 10.9 µM) | 50 µg/mL (≈ 87.6 µM) | 50 µg/mL (≈ 87.6 µM) | > 50 µg/mL
CC(C)CCC[C@@H](C)[C@H]1CC[C@H]2[C@@H]3CC=C4C[C@@H](NCCCN)CC[C@]4(C)[C@H]3CC[C@]12C | > 50 µg/mL | 6.25 µg/mL (≈ 14.1 µM) | 6.25 µg/mL (≈ 14.1 µM) | > 50 µg/mL | 6.25 µg/mL (≈ 14.1 µM)
CN[C@H]1CC[C@@]2(C)C(=CC[C@H]3[C@@H]4CC[C@H]([C@H](C)CCCC(C)C)[C@@]4(C)CC[C@@H]32)C1 | 3.12 µg/mL (≈ 7.82 µM) | 6.25 µg/mL (≈ 15.6 µM) | > 50 µg/mL | > 50 µg/mL | 6.25 µg/mL (≈ 15.6 µM)
CC(C)CCC[C@@H](C)[C@H]1CC[C@H]2[C@@H]3CC[C@H]4C[C@@H](NCCCCCN)CC[C@]4(C)[C@H]3CC[C@]12C | 25 µg/mL (≈ 52.9 µM) | 6.25 µg/mL (≈ 13.2 µM) | > 50 µg/mL | 50 µg/mL (≈ 106 µM) | 50 µg/mL (≈ 106 µM)
CC(C)CCC[C@@H](C)[C@H]1CC[C@H]2[C@@H]3CCC4=C[C@@H](NCCCCCCCCN)CC[C@]4(C)[C@H]3CC[C@]12C | > 50 µg/mL | > 50 µg/mL | > 50 µg/mL | > 50 µg/mL | > 50 µg/mL
CC(C)[C@@H](CC[C@@H](C)[C@H]1CC[C@H]2[C@@H]3[C@H](O)C[C@H]4C[C@@H](NCCCNCCCCNCCCN)CC[C@]4(C)[C@H]3CC[C@]12C)OS(=O)(=O)O.Cl.Cl.Cl.Cl [TRODUSQUEMINE HYDROCHLORIDE] | – | 1 µg/mL | 4 µg/mL | 4 µg/mL | –
